The structures appear in SMILES notation.

Assay [1] concerns the target T1, Cytochrome P450 11B2, mitochondrial (Rattus norvegicus, UniProt P30099).
T1 sequence (P30099 whole entry): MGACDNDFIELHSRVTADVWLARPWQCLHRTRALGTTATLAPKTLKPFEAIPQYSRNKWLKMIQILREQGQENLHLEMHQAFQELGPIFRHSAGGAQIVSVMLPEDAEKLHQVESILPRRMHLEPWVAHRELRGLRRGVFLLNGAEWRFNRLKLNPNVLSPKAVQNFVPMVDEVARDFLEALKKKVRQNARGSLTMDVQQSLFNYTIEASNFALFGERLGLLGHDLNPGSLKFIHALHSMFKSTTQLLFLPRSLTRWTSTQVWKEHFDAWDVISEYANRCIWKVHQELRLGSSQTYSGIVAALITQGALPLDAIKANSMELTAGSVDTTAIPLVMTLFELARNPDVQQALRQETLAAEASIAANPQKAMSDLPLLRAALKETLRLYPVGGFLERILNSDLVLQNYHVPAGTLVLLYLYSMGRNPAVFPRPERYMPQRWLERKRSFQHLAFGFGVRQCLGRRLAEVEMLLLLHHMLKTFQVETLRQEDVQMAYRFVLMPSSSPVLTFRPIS
As to the kind of experiment: Inhibition of rat CYP11B2-1F4 expressed in Chinese hamster V79 cells using 11-deoxycorticosterone as substrate preincubated for 1 hr followed by substrate addition measured for 3 hrs by HTRF assay. It is filed as cell-based. A general note: Time-resolved FRET reads energy transfer from a long-lived donor to a nearby acceptor.

In a further assay the target is Cytochrome P450 2D6 (Homo sapiens, UniProt P10635). As to the kind of experiment: Inhibition of hepatic CYP2D6 (unknown origin). It counts as ADME.
Cytochrome P450 2D6, sequence (P10635 whole entry): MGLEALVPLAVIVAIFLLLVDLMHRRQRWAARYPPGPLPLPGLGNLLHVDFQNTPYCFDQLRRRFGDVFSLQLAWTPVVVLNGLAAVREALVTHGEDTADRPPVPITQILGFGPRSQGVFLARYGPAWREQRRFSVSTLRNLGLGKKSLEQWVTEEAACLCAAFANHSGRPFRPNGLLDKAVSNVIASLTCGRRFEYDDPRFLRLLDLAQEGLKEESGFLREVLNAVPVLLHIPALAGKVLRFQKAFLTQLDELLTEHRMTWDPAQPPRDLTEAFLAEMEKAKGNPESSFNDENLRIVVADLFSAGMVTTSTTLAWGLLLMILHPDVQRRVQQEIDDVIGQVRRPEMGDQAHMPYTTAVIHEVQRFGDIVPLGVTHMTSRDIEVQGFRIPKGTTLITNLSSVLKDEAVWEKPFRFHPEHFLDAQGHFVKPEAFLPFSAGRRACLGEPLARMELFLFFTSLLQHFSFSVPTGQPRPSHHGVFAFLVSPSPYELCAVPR
For assay [2], the target named is T2, Cytochrome P450 11B2, mitochondrial (Homo sapiens, UniProt P19099).
T2 sequence (P19099 whole entry): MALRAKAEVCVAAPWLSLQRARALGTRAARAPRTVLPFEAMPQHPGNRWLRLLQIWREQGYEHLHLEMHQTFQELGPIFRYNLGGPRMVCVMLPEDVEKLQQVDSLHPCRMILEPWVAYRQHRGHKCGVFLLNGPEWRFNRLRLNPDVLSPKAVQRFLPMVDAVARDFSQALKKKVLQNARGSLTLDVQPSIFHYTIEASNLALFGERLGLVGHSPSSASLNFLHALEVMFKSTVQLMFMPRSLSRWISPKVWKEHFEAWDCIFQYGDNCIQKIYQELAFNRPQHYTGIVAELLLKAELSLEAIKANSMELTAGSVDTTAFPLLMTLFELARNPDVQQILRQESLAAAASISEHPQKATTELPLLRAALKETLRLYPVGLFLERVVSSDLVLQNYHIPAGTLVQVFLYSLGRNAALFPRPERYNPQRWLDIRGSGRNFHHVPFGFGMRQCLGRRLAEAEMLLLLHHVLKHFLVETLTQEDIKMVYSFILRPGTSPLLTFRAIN
As to the kind of experiment: Inhibition of human CYP11B2-CLE9 expressed in Chinese hamster V79 cells using 11-deoxycorticosterone as substrate preincubated for 1 hr followed by substrate addition measured for 3 hrs by HTRF assay. It is filed as cell-based.

The target of assay [3] is T3, Cytochrome P450 11B1, mitochondrial (Homo sapiens, UniProt P15538).
T3 sequence (P15538 whole entry): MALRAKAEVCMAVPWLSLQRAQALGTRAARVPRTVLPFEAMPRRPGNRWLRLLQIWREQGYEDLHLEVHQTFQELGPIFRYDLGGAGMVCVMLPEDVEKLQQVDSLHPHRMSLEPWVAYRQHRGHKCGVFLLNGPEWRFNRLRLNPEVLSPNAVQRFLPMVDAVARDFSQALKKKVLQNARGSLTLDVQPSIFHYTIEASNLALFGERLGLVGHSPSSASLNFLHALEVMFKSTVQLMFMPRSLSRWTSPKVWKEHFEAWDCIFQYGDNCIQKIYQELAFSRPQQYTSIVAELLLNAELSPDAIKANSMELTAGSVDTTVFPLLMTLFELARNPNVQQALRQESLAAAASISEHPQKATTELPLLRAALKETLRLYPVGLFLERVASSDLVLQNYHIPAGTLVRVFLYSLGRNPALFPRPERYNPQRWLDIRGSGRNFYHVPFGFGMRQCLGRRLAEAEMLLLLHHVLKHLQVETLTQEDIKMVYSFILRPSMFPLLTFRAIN
Put plainly: Inhibition of human CYP11B1-8C7 expressed in Chinese hamster V79 cells using 11-deoxycortisol as substrate preincubated for 1 hr followed by substrate addition measured for 3 hrs by HTRF assay. It counts as ADME, cell-based.

The target of the next assay is Cytochrome P450 3A4 (Homo sapiens, UniProt P08684). Put plainly: Inhibition of hepatic CYP3A4 (unknown origin). It is filed as ADME.
Cytochrome P450 3A4, sequence (P08684 whole entry): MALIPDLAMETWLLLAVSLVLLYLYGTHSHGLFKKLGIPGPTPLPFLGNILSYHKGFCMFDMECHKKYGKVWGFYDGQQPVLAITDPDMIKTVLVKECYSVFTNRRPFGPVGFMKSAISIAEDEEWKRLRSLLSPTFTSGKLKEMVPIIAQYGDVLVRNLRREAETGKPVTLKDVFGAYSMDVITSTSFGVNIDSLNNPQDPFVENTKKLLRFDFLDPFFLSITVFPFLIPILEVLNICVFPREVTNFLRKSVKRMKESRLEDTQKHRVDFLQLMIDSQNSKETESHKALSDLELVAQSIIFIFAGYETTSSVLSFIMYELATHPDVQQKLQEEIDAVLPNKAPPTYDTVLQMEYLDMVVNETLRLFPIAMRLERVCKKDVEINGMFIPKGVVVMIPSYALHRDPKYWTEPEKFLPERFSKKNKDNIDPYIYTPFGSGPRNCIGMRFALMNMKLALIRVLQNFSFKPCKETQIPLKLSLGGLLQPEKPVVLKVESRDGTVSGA
The nature of assay [4]: Selectivity ratio of IC50 for human CYP11B1-8C7 expressed in Chinese hamster V79 cells to IC50 for human CYP11B2-CLE9 expressed in Chinese hamster V79 cells.
The target of a further assay is T4, Aromatase (Homo sapiens, UniProt P11511).
T4 sequence (P11511 whole entry): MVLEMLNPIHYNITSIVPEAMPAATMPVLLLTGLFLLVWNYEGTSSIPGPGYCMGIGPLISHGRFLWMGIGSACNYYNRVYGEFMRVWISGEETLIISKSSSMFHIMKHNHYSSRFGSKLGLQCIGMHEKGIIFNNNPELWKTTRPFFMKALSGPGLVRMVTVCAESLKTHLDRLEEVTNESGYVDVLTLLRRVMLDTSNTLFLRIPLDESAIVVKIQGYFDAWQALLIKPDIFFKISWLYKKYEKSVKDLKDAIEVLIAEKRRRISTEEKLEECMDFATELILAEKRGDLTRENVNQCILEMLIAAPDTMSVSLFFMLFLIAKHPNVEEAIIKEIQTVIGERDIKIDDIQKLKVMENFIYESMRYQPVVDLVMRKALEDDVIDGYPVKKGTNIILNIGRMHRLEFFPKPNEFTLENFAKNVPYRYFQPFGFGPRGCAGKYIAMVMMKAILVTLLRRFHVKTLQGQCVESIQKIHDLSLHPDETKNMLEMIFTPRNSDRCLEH
Put plainly: Inhibition of CYP19 (unknown origin) using MFC as substrate and NADPH as cofactor preincubated for 10 mins with cofactor followed by substrate/enzyme addition measured after 30 mins.

Another assay addresses Cytochrome P450 2C9 (Homo sapiens, UniProt P11712). As to the kind of experiment: Inhibition of hepatic CYP2C9 (unknown origin). It is filed as ADME.
For the next assay, the target named is T5, Steroid 21-hydroxylase (Homo sapiens, UniProt P08686).
T5 sequence (P08686 whole entry): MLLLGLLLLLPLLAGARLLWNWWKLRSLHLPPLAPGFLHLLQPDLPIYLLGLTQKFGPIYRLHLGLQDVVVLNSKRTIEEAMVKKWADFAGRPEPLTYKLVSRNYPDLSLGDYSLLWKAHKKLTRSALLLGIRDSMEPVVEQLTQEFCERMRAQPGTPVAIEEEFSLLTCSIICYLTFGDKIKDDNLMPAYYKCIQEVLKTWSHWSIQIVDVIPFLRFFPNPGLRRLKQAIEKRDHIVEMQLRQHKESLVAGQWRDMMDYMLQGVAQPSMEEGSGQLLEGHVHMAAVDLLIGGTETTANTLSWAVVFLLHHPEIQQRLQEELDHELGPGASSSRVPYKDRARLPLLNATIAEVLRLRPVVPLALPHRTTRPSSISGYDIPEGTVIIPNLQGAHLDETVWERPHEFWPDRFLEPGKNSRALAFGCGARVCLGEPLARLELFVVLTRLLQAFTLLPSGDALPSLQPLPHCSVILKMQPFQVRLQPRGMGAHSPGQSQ
As to the kind of experiment: Inhibition of human CYP21 expressed in African green monkey COS7 cells using […] as substrate preincubated for 1 hr followed by substrate addition measured for 3 hrs by HTRF assay. It is filed as cell-based.

Assay [5] addresses T6, Steroid 17-alpha-hydroxylase/17,20 lyase (Homo sapiens, UniProt P05093).
T6 sequence (P05093 whole entry): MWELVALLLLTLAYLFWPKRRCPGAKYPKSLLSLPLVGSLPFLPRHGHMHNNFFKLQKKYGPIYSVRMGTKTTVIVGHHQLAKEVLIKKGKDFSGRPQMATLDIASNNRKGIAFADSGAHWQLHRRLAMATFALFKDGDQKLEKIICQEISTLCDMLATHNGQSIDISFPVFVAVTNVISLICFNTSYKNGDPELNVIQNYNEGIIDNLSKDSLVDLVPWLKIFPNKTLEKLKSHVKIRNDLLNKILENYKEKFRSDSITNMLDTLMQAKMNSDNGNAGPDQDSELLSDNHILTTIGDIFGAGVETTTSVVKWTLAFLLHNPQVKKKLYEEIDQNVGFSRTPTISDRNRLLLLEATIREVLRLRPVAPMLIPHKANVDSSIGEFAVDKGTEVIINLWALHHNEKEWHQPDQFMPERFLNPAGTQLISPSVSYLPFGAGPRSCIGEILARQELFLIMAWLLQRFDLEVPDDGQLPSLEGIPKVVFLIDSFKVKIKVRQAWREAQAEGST
Put plainly: Inhibition of human CYP17 expressed in African green monkey COS7 cells using 17-hydroxypregnenolone as substrate preincubated for 1 hr followed by substrate addition measured after 3 hrs by EIA. It counts as cell-based.

Cytochrome P450 2C9, sequence (P11712 whole entry): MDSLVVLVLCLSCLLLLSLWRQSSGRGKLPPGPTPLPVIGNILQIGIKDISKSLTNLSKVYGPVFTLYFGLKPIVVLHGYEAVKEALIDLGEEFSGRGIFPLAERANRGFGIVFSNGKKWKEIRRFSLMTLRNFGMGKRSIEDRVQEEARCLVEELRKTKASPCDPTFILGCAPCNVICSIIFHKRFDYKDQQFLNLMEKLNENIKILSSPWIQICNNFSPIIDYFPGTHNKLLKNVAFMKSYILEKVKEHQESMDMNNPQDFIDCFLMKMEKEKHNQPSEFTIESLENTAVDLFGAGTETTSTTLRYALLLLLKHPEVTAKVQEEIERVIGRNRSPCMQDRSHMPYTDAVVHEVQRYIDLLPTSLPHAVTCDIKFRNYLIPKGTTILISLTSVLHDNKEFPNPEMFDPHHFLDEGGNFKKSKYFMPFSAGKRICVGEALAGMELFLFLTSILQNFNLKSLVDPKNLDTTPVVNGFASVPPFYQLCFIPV

One may read the IC50 as the concentration at which inhibition is half-maximal. For `C[C@](O)(c1cncc(-n2nc(C(F)(F)F)c3ccccc32)c1)C(F)(F)F`, the IC50 is 0.077 µM in assay [1]; > 50 µM against Cytochrome P450 2D6; 0.077 to 0.0774 µM in assay [2]; 0.856 to 0.86 µM in assay [3]; > 50 µM against Cytochrome P450 3A4; 5.4 µM at Aromatase. The IC50 at Cytochrome P450 2C9 was 7.2 µM; on Steroid 21-hydroxylase it was > 10 µM; in assay [5], > 10 µM. In addition, in [4], the “Ratio IC50” value came to 11.
Regarding `Cc1nn(-c2cncc(C(C)(C)O)c2)c2cccc(F)c12`, the IC50 in assay [1] was 0.0013 µM; at Cytochrome P450 2D6, > 50 µM; in [2], 0.0013 to 0.00131 µM; in assay [3], 0.022 to 0.0223 µM; on Cytochrome P450 3A4, > 50 µM; against Aromatase, 6.9 µM. The IC50 is 4.7 µM on Cytochrome P450 2C9, > 10 µM on Steroid 21-hydroxylase and > 10 µM in [5]. Also, in assay [4], the “Ratio IC50” value is listed as 17.
`Cc1nn(-c2cncc([C@@](C)(O)C(F)(F)F)c2)c2ccccc12`: the IC50 in assay [1] is 0.033 µM; against Cytochrome P450 2D6, > 50 µM; in [2] it was 0.0329 to 0.033 µM; in assay [3], 0.386 to 0.39 µM; against Cytochrome P450 3A4, > 50 µM; against Aromatase, 6.2 µM. Besides, the values for the IC50 (at Cytochrome P450 2C9; on Steroid 21-hydroxylase; in assay [5]) were 3.8 µM, > 10 µM and > 10 µM, respectively. In assay [4], the “Ratio IC50” value was 12.
As for `Cc1nn(-c2cncc([C@](C)(O)C(F)(F)F)c2)c2ccccc12`, the IC50 in assay [1] was 0.014 µM; against Cytochrome P450 2D6, > 50 µM; in [2], 0.014 to 0.0143 µM; in assay [3] it was 0.338 to 0.34 µM; at Cytochrome P450 3A4, > 50 µM; against Aromatase it was 6.3 µM. Further, the values for the IC50 (against Cytochrome P450 2C9; on Steroid 21-hydroxylase; in assay [5]) were 11 µM, > 10 µM and > 10 µM, respectively. Further, the “Ratio IC50” value in assay [4] is on record as 24.
